Measurements reported in a melting point compilation (Tetko et al.; mined from patent text by program, amines drawn as free bases though some values may be those of a salt).

| SMILES | melting point |
| --- | --- |
| Cn1ccnc1SCOC(=O)C(C)(C)C | 128 to 132 °C |
| COc1cc(Nc2c(C#N)cnc3cc4cc(OC)c(OCCN5CCC(O)CC5)cc4cc23)c(Cl)cc1Cl | 150 to 160 °C |
| O=C(CC(O)=S)c1ccccc1 | 103 to 105 °C |
| O=C(O)[C@@H]1C[C@@H](SC(c2ccccc2)(c2ccccc2)c2ccccc2)CN1S(=O)(=O)c1ccc2ccccc2c1 | 64 to 69 °C |
| CCC(CC)CNC(=O)c1cccc(CN2C(=O)C3(COc4cc5c(cc43)CCO5)c3ccccc32)c1 (centres undefined) | 105 to 106 °C |
| N#CC1CN1C(=O)NC(=O)c1ccc2ccccc2c1 (centres undefined) | 164 to 166 °C |
| CN1CCN(C2CC3C4CCC5CC(O)C(N6CCC7(CC6)OCCO7)CC5(C)C4CCC3(C)C2O)CC1 (centres undefined) | 185 to 187 °C |
| CN1CCC2(CC1)NC(=S)N(c1ccc(C#N)c(C(F)(F)F)c1)C2=O | 229 to 230 °C |
| N#Cc1ccc(C(=O)c2ccccc2)s1 | 85 to 89 °C |
| CCC#CC(C)(C)NC(=O)C(Br)CC (centres undefined) | 53 to 55 °C |
| O=[N+]([O-])C(F)(CO)CO | 86 to 87 °C |
| CCCN(CCC)C(=O)Cn1c(-c2ccc(Cl)cc2)nc2ccc(Cl)nc21 | 170 to 174 °C |
| CCCCCCc1cc(SC)ccc1OC(=O)c1ccccc1 | 57 to 58 °C |
| C[C@@H](CO)Cn1c(C(=O)NCc2cc(C(F)(F)F)cc(C(F)(F)F)c2)c(-c2ccccc2)c2cccnc2c1=O | 101 to 103 °C |
| COc1ccccc1NC(=O)NC1N=C(c2ccc(Cl)cc2)c2c(sc(C)c2C)-n2c(C)nnc21 (centres undefined) | 261 to 262 °C |
| COC(=O)c1cc(N2C(=O)C3=C(CCCC3)C2=O)ccc1Cl | 113 to 115 °C |
| COc1cc(C=CC=C2OC(=O)NC2=O)ccc1OCc1coc(-c2ccccc2)n1 | 227 to 228 °C |
| CCCc1cc2c(cc1O)CCO2 | 73 to 74 °C |
| Clc1ccc2c(c1)C(c1ccccc1Cl)=NCc1nccn1-2 | 179 to 180 °C |
| Clc1ccc(COC(CNc2ccc(Cl)c(Cl)c2)Cn2ccnc2)cc1 (centres undefined) | 102 to 103 °C |
| O=S(=O)(c1ccccc1)N1CCNc2ncc(I)cc21 | 145 to 146 °C |
| CCOC(=O)Cc1c(C)n(Cc2csc(-c3ccc(Cl)cc3)n2)c2ccc(OCc3csc(-c4ccccc4)n3)cc12 | 155 to 157 °C |
| CCOC(=O)c1cnc2c(OCC)csc2c1O | 223 to 224 °C |
| CS(=O)(=O)N1C[C@H](S)C[C@H]1COc1ccccc1 | 78 to 79 °C |
| Nc1cc(-n2cc(C(=O)O)c(=O)c3ccc(Cl)nc32)c(F)cc1F | > 270 °C |
| CCCCC1=C(Cl)C(=O)c2ccccc2C1=O | 69 to 70 °C |
| C=CCOC(=O)C1=C(C)NC(C)=C(C(=O)OC)C1c1cc(Br)c(OC)c(OC)c1 (centres undefined) | 123 to 124 °C |
| Nc1nc(-n2cc(C(=O)O)c(=O)c3cc(F)c(F)c(F)c32)c(F)cc1F | 280 °C |

| SMILES | melting point |
| --- | --- |
| NC(=O)c1csnc1-c1cccc(C(F)(F)F)c1 | 141 to 142 °C |
| CNC(=O)C(=O)CCCCCCSc1ccc(-c2ccccc2)cc1 | 131 to 132 °C |
| CCOC(=O)N(C)n1cccc1C(=O)c1ccccc1F | 64 to 66 °C |
| Clc1cccnc1-c1cc(OCCc2ccccn2)c2[nH]nc(Br)c2c1 | > 250 °C |
| Cc1c(C#N)sc(N=Nc2c(NCC(C)O)nc(NCC(C)O)c(C#N)c2C)c1C#N (centres undefined) | 268 to 269 °C |
| CC(C)(C)c1cc(-c2csc3nc(-c4ccccc4)c(-c4ccccc4)n23)cc(C(C)(C)C)c1O | 237 to 238 °C |
| I[Si](c1ccccc1)(c1ccccc1)c1ccccc1 | 221 to 225 °C |
| CCOC(=O)C1C(=O)NCC1CCc1ccc(C(=O)OCC(C)C)cc1 (centres undefined) | 98 to 104 °C |
| C=CCN1Cc2cc(Br)ccc2C1=O | 58 to 60 °C |
| CCc1noc(-c2cn(-c3cccnc3)cn2)n1 | 152 to 153 °C |
| COc1ccc(-c2ccc(C(=O)Nc3ccc4cc(CN5CCCCC5)cnc4c3C)c(F)c2)cc1 | 191 to 192 °C |
| COC(=O)c1nsc2nc3ccccc3n12 | 208 to 209 °C |
| CC(C(N)=O)c1ccc(-c2ccc(F)cc2F)c(F)c1 (centres undefined) | 136 to 137 °C |
| Cc1cc2c([nH]c1=O)C(=O)c1ccccc1C2=O | > 300 °C |
| CCNC1CN(c2cc3c(cc2F)c(=O)c2c(=O)[nH]sc2n3C2CC2)C1 | 231 to 236 °C |
| COC(=O)c1ccc(-n2cc3ccccc3n2)cc1 | 80 to 81 °C |
| O=C(CC1CCCCC1)Nc1c(Cl)ccc2nc(N3CCC(NS(=O)(=O)C(F)(F)F)CC3)ccc12 | 187 to 189 °C |
| COc1cnc(Cl)n2nc(N)nc12 | 251 °C |
| CNC(=O)C(=NOC)c1ccccc1CO | 100 to 102 °C |
| CN(C1CCN(Cc2ccccn2)CC1)S(=O)(=O)c1ccc(Nc2nccc(Nc3ccc(F)cc3)n2)cc1 | 202 to 204 °C |
| CC(=O)Nc1cc2c(s1)CCCN(CCCCN1CCN(c3ncccn3)CC1)C2=O | 158 to 161 °C |
| Cc1cc(O)n(C)c(=O)c1C#N | 285 °C |
| CC(C)(C)C(=O)OC(COc1cccc2[nH]ncc12)CN1CCC(COc2ccccc2)CC1 (centres undefined) | 116 to 118 °C |
| C[C@H](NC(=O)COCCNC(=O)c1ccc(Cl)cc1)C(=O)N[C@H](CCC(=O)OCc1ccccc1)C(N)=O | 141 to 143 °C |
| CC(C)(CO)NCCCn1ccnc1 | 81 to 85 °C |
| COC(=O)c1ccc(Cl)c([N+](=O)[O-])c1Cl | 72 to 74 °C |
| CC#CCOc1ccc(S(=O)(=O)C2(C(=O)O)CCN(Cc3ccc(F)cc3)CC2)cc1 | 106 °C |

Results, then the compound that gave them:

| melting point | SMILES |
| --- | --- |
| 141 to 142 °C | COc1ccc(-c2sc3cnccc3c2OC(C)=O)cc1 |
| 121 to 123 °C | CCOC(=O)CCc1cc(F)c(N2CCNCC2)nc1Nc1ccc(F)cc1F |
| 132 °C | COP(=O)(OC)C(c1ccc(F)cc1)(c1ccccc1F)c1ccccc1Cl (centres undefined) |
| 50 to 52 °C | CC(C)COC(=O)CCC1NCC(=O)N1 (centres undefined) |
| 121 to 123 °C | COC(=O)c1ccc(OC)cc1Oc1cc(Cl)ccc1[N+](=O)[O-] |
| 154 to 155 °C | Nc1cc2c(cc1Oc1ccccc1)C(=O)CCO2 |
| 61 to 64 °C | COC(=O)C(C)Oc1cc(Cl)ccc1COc1ccc(-c2nn(C)c(OC(F)F)c2Cl)cc1 (centres undefined) |
| 201 to 203 °C | NS(=O)(=O)c1ccc(-c2cnn(Cc3c(F)cc(F)cc3F)c(=O)c2-c2ccc(F)cc2)cc1 |
| 204 to 205 °C | CCC(=O)Nc1cc(-c2c(-c3ccc(Cl)cc3)nc3cccnn23)ccn1 |
| 64 to 67 °C | C[C@H]1C(=O)OCN1C(=O)OC(C)(C)C |
| 175 °C | Cc1cc2cccc(N)c2cn1 |
| 197 to 199 °C | N#Cc1ccc(N(Cc2ccc(OS(N)(=O)=O)cc2)n2cnnc2)cc1-c1ccc(F)cc1 |
| 275 °C | COC(=O)c1ccc(C(=O)Nc2ccc3ccc(Cl)nc3n2)cc1 |
| 69 to 75 °C | CCNc1nc(N=[N+]=[N-])nc(NC(C)C(F)(F)F)n1 (centres undefined) |
| 110 to 112 °C | c1ccc(-n2c(-c3cccnc3)nc3ccccc32)cc1 |
| 140 to 142 °C | CC(C)(C)OC(=O)C[C@@H]1C[C@@H](COc2ccc(-c3ccc(C#N)c(Cl)c3)cc2)NC1=O |
| 204 to 205 °C | O=C1CCC(C(=O)N2CCN(C(=O)CN3CCOCC3)CC2)N1 (centres undefined) |
| 87 °C | COc1cccc(C=CCN2CCc3nc(N)sc3CC2)c1OC |
| 165 to 167 °C | COC1=C(OC)C(=O)c2c(cccc2S(=O)c2ccccc2)C1=O (centres undefined) |
| 113 to 115 °C | Nc1c(CC(=O)O)cccc1Oc1cc(Cl)cc(Cl)c1 |
| 151 to 152 °C | COc1cc(OC)nc(Oc2c(Cl)cccc2C(=O)O)n1 |
| 136 to 141 °C | COC(=O)C1=CC=CC(C(=O)OC)(N(c2ccccc2)c2ccc(-c3ccc(N(c4ccccc4)C4(C(=O)OC)C=CC=C(C(=O)OC)C4)cc3)cc2)C1 (centres undefined) |

| melting point | SMILES |
| --- | --- |
| 147 to 149 °C | CC(C)c1cccc(C(C)C)c1NC(=O)NCCN1CCN(CCSc2nc3ccccc3s2)CC1 |
| 102 to 104 °C | CC(=O)N1CCN(c2nccc(Oc3ccc(NC(=O)c4cc(F)cc(N5CCCCC5)c4)c4ccccc34)n2)CC1 |
| 142 to 145 °C | NC(=O)CCN1C(=O)C(=O)c2cc(F)ccc21 |
| 204 °C | CCc1nc2cc(C(F)(F)F)c(Cl)cc2n1-c1ccc(CCOC(=O)NS(=O)(=O)c2cn(C)cn2)cc1 |
| 246 to 250 °C | COc1c(N2CC(O)C2)c(F)cc2c(=O)c(C(=O)O)cn(C3CC3)c12 |
| > 350 °C | O=c1[nH][nH]c2c1c(O)nc1cc(Cl)c(Cl)cc12 |
| 40 to 42 °C | COc1ccc(Br)c(O)c1 |
| 135 to 140 °C | CCn1c2ccc(C=O)cc2c2ccc3ccccc3c21 |
| 161 to 162 °C | CCOC(=O)C(=O)Nc1coc2ccc(Cl)cc2c1=O |
| 155 to 158 °C | O=C(O)COc1cccc2c1CCc1sc(SC(c3cccc(F)c3)c3cccc(F)c3)nc1-2 |
| 140 to 144 °C | C=CC(=O)Nc1ccc(C(=O)C[N+](=O)[O-])c(Cl)c1 |
| 131 to 132 °C | Cc1oc(-c2ccccc2)nc1COc1cccc(COc2nn(Cc3ccccc3)cc2C=O)c1 |
| 110 to 111 °C | N#CC(c1ccccc1)c1nc(-c2ccncc2)cs1 (centres undefined) |
| 244 °C | N#Cc1c(N2CCN(C(=O)c3cccs3)CC2)c2cc(F)cnc2[nH]c1=O |
| 60 to 65 °C | CC(=O)N1CCC(Oc2c(F)c(F)c(F)c(F)c2F)CC1 |
| 102 to 105 °C | Cn1cc(C2=C(c3cn(C4CN(C(c5ccccc5)c5ccccc5)C4)c4ccccc34)C(=O)NC2=O)c2ccccc21 |
| 116 to 118 °C | CC(C)(C)OC(=O)CN(CCO)C(=O)c1cc([N+](=O)[O-])ccc1F |
| 38 to 39 °C | CCC#CCOc1cc(C=O)ccc1OC |
| 116 to 118 °C | COC(=O)[C@H](Cc1ccc(OS(=O)(=O)C(F)(F)F)c(C2SCCS2)c1)NC(C)=O |
| 161 to 164 °C | O=c1[nH]c(NCCCOc2cccc(CN3CCCCC3)c2)ncc1[N+](=O)[O-] |
| 170 to 173 °C | COc1cc2c(Nc3ccc4cn[nH]c4c3)c(C#N)cnc2cc1OCCN1CCc2ccccc2C1 |
| 110 to 111 °C | CC[Si](CC)(CC)Oc1cccc2ncc3c(c12)CCCC3 |
